Assay: xn = mol fraction of the nth substance listed

CC[n+]1ccn(C)c1.O=S(=O)([O-])O + O=C([O-])CC(O)(CC(=O)[O-])C(=O)[O-].[NH4+].[NH4+].[NH4+] + O
viscosity [mPa·s], 101 kPa
Settings | 293.15 K | 298.15 K | 303.15 K | 308.15 K | 313.15 K
x2 = 0, x1 = 0.0006645 | 1.023 | 0.93 | 0.823 | 0.75 | 0.674
x2 = 0, x1 = 0.0007293 | 1.036 | 0.943 | 0.825 | 0.749 | 0.689
x2 = 0, x1 = 0.0009254 | 1.064 | 0.943 | 0.844 | 0.763 | 0.683
x2 = 0.0007784, x1 = 0.0007287 | 1.08 | 0.994 | 0.875 | 0.801 | 0.743
x2 = 0.0007964, x1 = 0.0009246 | 1.11 | 0.994 | 0.895 | 0.815 | 0.737
x2 = 0.000825, x1 = 0.0006639 | 1.07 | 0.983 | 0.877 | 0.803 | 0.727
x2 = 0.001056, x1 = 0.0007285 | 1.096 | 1.005 | 0.886 | 0.813 | 0.756
x2 = 0.001057, x1 = 0.0006638 | 1.083 | 0.992 | 0.886 | 0.813 | 0.737
x2 = 0.001176, x1 = 0.0009243 | 1.133 | 1.008 | 0.911 | 0.832 | 0.755
x2 = 0.001406, x1 = 0.0009241 | 1.146 | 1.017 | 0.919 | 0.841 | 0.765
x2 = 0.001588, x1 = 0.0007281 | 1.126 | 1.024 | 0.906 | 0.834 | 0.779
x2 = 0.001621, x1 = 0.0006634 | 1.115 | 1.012 | 0.906 | 0.835 | 0.761
x2 = 0.001717, x1 = 0.0006634 | 1.12 | 1.015 | 0.91 | 0.839 | 0.764
x2 = 0.001746, x1 = 0.000728 | 1.135 | 1.029 | 0.911 | 0.84 | 0.786
x2 = 0.001804, x1 = 0.0009237 | 1.169 | 1.03 | 0.934 | 0.857 | 0.782
x2 = 0.002295, x1 = 0.0009233 | 1.198 | 1.047 | 0.951 | 0.876 | 0.803
x2 = 0.002321, x1 = 0.0007276 | 1.168 | 1.048 | 0.931 | 0.861 | 0.809
x2 = 0.002323, x1 = 0.000663 | 1.155 | 1.034 | 0.93 | 0.86 | 0.787
x2 = 0.002686, x1 = 0.0007273 | 1.189 | 1.059 | 0.943 | 0.874 | 0.824
x2 = 0.002704, x1 = 0.0006627 | 1.176 | 1.046 | 0.942 | 0.873 | 0.801
x2 = 0.002709, x1 = 0.0009229 | 1.223 | 1.06 | 0.965 | 0.891 | 0.82

CC[n+]1ccn(C)c1.O=S(=O)([O-])O + O
viscosity [mPa·s]
Settings | 293.15 K | 298.15 K | 303.15 K | 308.15 K | 313.15 K | 318.15 K
100 kPa, x1 = 0.0005421 | 1.046 | 0.929 | 0.824 | 0.75 | 0.678 | –
100 kPa, x1 = 0.0009002 | 1.05 | 0.94 | 0.84 | 0.76 | 0.69 | 0.65
100 kPa, x1 = 0.0009056 | 1.068 | 0.949 | 0.843 | 0.759 | 0.684 | –
100 kPa, x1 = 0.001263 | 1.073 | 0.966 | 0.866 | 0.78 | 0.697 | –
100 kPa, x1 = 0.001799 | 1.07 | 0.95 | 0.85 | 0.77 | 0.7 | 0.64
100 kPa, x1 = 0.002696 | 1.08 | 0.96 | 0.86 | 0.78 | 0.71 | 0.64
101 kPa, x1 = 0.0006645 | 1.023 | 0.93 | 0.8234 | 0.7498 | 0.6736 | –
101 kPa, x1 = 0.0007293 | 1.036 | 0.943 | 0.8247 | 0.7493 | 0.6893 | –
101 kPa, x1 = 0.0009254 | 1.064 | 0.943 | 0.8439 | 0.7628 | 0.6829 | –

CCCC[n+]1ccn(C)c1.O=S(=O)([N-]S(=O)(=O)C(F)(F)F)C(F)(F)F + CCCCCO
Settings | viscosity [mPa·s]
298 K, 100 kPa, x1 = 1 | 49.7

CCCC[n+]1ccn(C)c1.O=S(=O)([N-]S(=O)(=O)C(F)(F)F)C(F)(F)F + O=C1CCCO1
100 kPa, x2 = 0
Settings | electrical conductivity [S/m] | viscosity [mPa·s]
298.15 K | 0.4 | 50
303.15 K | 0.472 | 41.24

CCCC[n+]1ccn(C)c1.F[P-](F)(F)(F)(F)F + CC(C)=O
Settings | electrical conductivity [S/m] | viscosity [mPa·s]
296.15 K, 101 kPa, x2 = 0 | 0.15 | –
296.15 K, 101 kPa, x2 = 0.9195 | 3.84 | –
298.15 K, 101 kPa, x2 = 0.4972 | 1.28 | 14.7
298.15 K, 101 kPa, x2 = 0.7839 | 2.86 | 2.05
298.15 K, 101.3 kPa, x2 = 0.4485 | – | 18.46
298.15 K, 101.3 kPa, x2 = 0.6007 | – | 6.96
298.15 K, 101.3 kPa, x2 = 0.8058 | – | 1.648

Reference: the CheMixHub ionic liquid set
